Melting point data for 89 compounds are collected here from a melting point compilation (Tetko et al.; mined from patent text by program, amines drawn as free bases though some values may be those of a salt).

SMILES strings stand for the structures.

A word on the melting point: it is the temperature, or range, at which the solid turns liquid. Take `Oc1cc2c3ccc(O)c(O)c3n(Cc3ccc(Br)cc3)c2cc1O`: the melting point was 249 to 252 °C.

As for `CS(=O)c1ccc(-n2cnnn2)cc1` (centres undefined), the melting point lay within 175 to 176 °C.

With `CCN(CC)Cc1nnc2n1-c1ccc(Cl)cc1C(c1ccccc1)=NC2`, the melting point was 130 to 132 °C.

For `CCOC(=O)c1c[nH]c2cc(-c3cc(C)nc(C)c3)c(F)cc2c1=O`, the melting point is greater than 300 °C.

As to `CC1(COCC(COCC2(C)COC2)(COCC2(C)COC2)COCC2(C)COC2)COC1`, the melting point was 108 to 110 °C.

`CN([C@H]1CC[C@H](Nc2nccc(-n3nnc4ccccc43)n2)CC1)S(C)(=O)=O`: the melting point is 250 to 252 °C.

The compound `COc1cccc(-c2cn3cccc(C=O)c3n2)c1` gave a melting point of 71 to 73 °C.

On to `Cc1cccc2c1C(=O)N(C)Cc1c(I)ncn1-2`, for which the melting point lay within 106 to 108 °C.

As to `O=CNC(Cc1ccccc1)C1CC(Cc2ccccc2)=NO1` (centres undefined), the melting point is 112 to 113 °C.

In turn, `O=C1[C@H]2CCCC[C@H]2Nc2ccccc2N1Cc1ccccc1` (relative stereo) returned a melting point of 164 to 166 °C.

`COc1cccc2c1nc(C)c1ccn(-c3ccccc3C)c12` came in with a melting point of 143 to 145 °C.

For `CCNC(=O)OC1CC(C)(C)N(OC(=O)NCC)C(C)(C)C1`, the melting point was 149 to 151 °C.

`O=C(NCCCCn1cncn1)c1sc2ccccc2c1Cl` showed a melting point of 103 to 105 °C.

`Cc1ccc(-c2cn(C)cc(-c3cccc(C(F)(F)F)c3)c2=O)cc1C` registered a melting point of 150 to 153 °C.

Turning to `O=c1c2ccccc2nc(CCc2c[nH]c3ccccc23)n1-c1ccccc1`, the melting point was in the range of 193 to 194 °C.

`CSc1nc(Br)cc(Br)n1` displayed a melting point of 82 to 84 °C.

As for `COCCOc1cc(NC(=O)OC(C)(C)C)c(NC(=O)CC(=O)c2cccc(I)c2)cc1C#Cc1ccccc1`, the melting point came out at 172 °C.

As for `C#Cc1cnc(OCCOc2ncnc(NS(=O)(=O)c3ccc(C(C)(C)C)cc3)c2-c2ccc(C)cc2)nc1`, the melting point is 207 to 210 °C.

In turn, `COc1ccc(C(=O)N(C(=O)c2ccc(OC)cc2)c2nc3ccc(N(C)C)cc3c(NCc3ccco3)c2C#N)cc1` registered a melting point of 143 °C.

`CCCC(=O)/C=C/c1cn(-c2ccccc2)nc1OCc1ccc(OCc2nc(-c3ccco3)oc2C)c(OC)c1` registered a melting point of 167 to 168 °C.

With `C=CCNc1nc(C=O)cs1`, the melting point lay in the range of 106 to 107 °C.

Compound `CCc1cccc2c(C(=O)OC)cnnc12` showed a melting point of 59 to 60 °C.

The compound `O=C1C(=O)c2ccc(Br)cc2C2=C1SCC1(CCN(CC(O)COc3ccc(Cl)cc3)CC1)O2` (centres undefined) had a melting point of 150 to 152 °C.

`COc1cccc2cc(C)c(C)nc12` had a melting point of 138 to 139 °C.

In the case of `N#Cc1c(Nc2ccccc2)cccc1Oc1ccccc1`, the melting point lay in the range of 146 to 147 °C.

In turn, `CS(=O)(=O)Nc1ccc2c(c1)CCC1(CCC(N3CCc4ccccc4C3)CC1)O2` (centres undefined) yielded a melting point of 183 to 185 °C.

In the case of `O=C(Cc1ccc(F)cc1)NC1CCN(Cc2ccc(Cl)c(Cl)c2)CC1`, the melting point lay within 144 to 147 °C.

For the compound `CC(C)[C@H](NC(=O)CNC(=O)OCC1c2ccccc2-c2ccccc21)C(=O)O`, the melting point is 69 to 71 °C.

Take `CSc1[nH]nc(-c2ccc(Cl)cc2F)c1C`: the melting point fell in the range of 88 to 90 °C.

Compound `CC(F)(F)C1(O)c2cc(Cl)ccc2Nc2ncccc21` (centres undefined) registered a melting point of 188 to 190 °C.

As for `N#Cc1ccc(N2C(=O)N(CCCCCN3C(=O)N(c4ccc(C#N)c(C(F)(F)F)c4)C(=O)C34CC4)C3(CC3)C2=O)cc1C(F)(F)F`, the melting point lay in the range of 154 to 155 °C.

`CC(C)c1n[nH]c(Cl)c1C=NC(C#N)=C(N)C#N` came in with a melting point of 145 to 150 °C.

In the case of `CCCc1nc(C)c(C=O)n1Cc1ccc(-c2ccccc2C(=O)O)cc1`, the melting point fell in the range of 243 to 245 °C.

The compound `O=C(N[C@@H](Cc1ccccc1)C(=O)Oc1ccc([N+](=O)[O-])cc1)OCc1ccccc1` came in with a melting point of 124 to 126 °C.

As for `Nc1ccc2oc([N+](=O)[O-])c(-c3ccccc3)c2c1`, the melting point lay within 125 to 127 °C.

Compound `N#Cc1c(F)nn(-c2c(Cl)cc(C(F)(F)F)cc2Cl)c1N` gave a melting point of 193 to 194 °C.

Consider `CCCc1nn(CC)c2c(=O)n(CCCOc3ccc(SC(C)(C)C(=O)O)cc3)c(C)nc12`, for which the melting point was 118 to 120 °C.

Regarding `C=C(C)CN1CCN(CCC(=O)N2c3ccccc3C(=O)Nc3cccnc32)CC1`, the melting point fell in the range of 210 to 211 °C.

Compound `COC(=O)c1sc2ccccc2c1O` registered a melting point of 109 to 110 °C.

The compound `COc1cc(Cl)ccc1NC(=O)C(C)(C)C` came in with a melting point of 66 to 69 °C.

In turn, `CCOC(=O)c1[nH]c(C)c(CC(C)C)c1C` gave a melting point of 115 to 117 °C.

In the case of `CCCCCCCCCCCCCCCCCC(O)c1cc(C(=O)OCC)ccc1O` (centres undefined), the melting point came to 75 °C.

Consider `COc1ccc(CC2=C(C)N=NC2=O)cc1OC1CCCC1`, for which the melting point was 186 to 187 °C.

`Cc1ccc(-c2c(NS(=O)(=O)c3ccc(C(C)(C)C)cc3)nc(-c3cccs3)nc2OCCO)cc1`: the melting point is greater than 300 °C.

As for `Cc1ccc(-c2ccccc2-c2nn[nH]c2C#N)cc1`, the melting point was in the range of 170 to 172 °C.

Compound `O=C1CC(c2cccc(-n3ccnc3)c2)=Nc2cc(OCCO)c(-c3ccc(F)cc3)cc2N1` displayed a melting point of 225 °C.

In turn, `Cc1cc(-c2ccc(C#N)cc2)sc1C(=O)O` yielded a melting point of 248 to 253 °C.

In turn, `CC(=O)OC1CCC2(C)C(CCC3C4CC5OC6(CC(C)C(C)(C)O6)C(C)(O)C5C4(C)CC(OC(C)=O)C32)C1` (centres undefined) came in with a melting point of 253 to 256 °C.

As to `O=C(Nc1c(C(O)(C(F)(F)F)C(F)(F)F)ccc2ccccc12)c1ccc(Cl)cc1`, the melting point fell in the range of 175 to 176 °C.

The compound `O=c1oc(-c2ccccc2)cc(O)c1SCCc1cccc(Cl)c1` had a melting point of 133 to 134 °C.

With `COc1cccc(OC)c1C(=O)Nc1nnc(-c2ccc(O)cc2)s1`, the melting point is greater than 260 °C.

The compound `CC1(C)C(=O)ON(Cc2ccccc2Br)C1=O` registered a melting point of 44.5 to 45.5 °C.

For `OCc1cccc(Nc2ncc(-c3ccccc3)s2)n1`, the melting point was in the range of 196 to 198 °C.

As for `Cc1nn(C)c(C)c1C(=O)Nc1cccc2c1CCC2(C)C`, the melting point was found to be 152 °C.

`C=C[C@@H]1O[C@](/C=C/C2CC2)(C(F)(F)F)c2cc(Cl)ccc2NC1=O` (relative stereo): the melting point was 166 °C.

Regarding `CC(C)(C(=O)O)C(=O)O`, the melting point was in the range of 121 to 123 °C.

Regarding `Cc1cc(C)nc(NC(=O)NS(=O)(=O)c2ccccc2OS(=O)(=O)N(C)C)n1`, the melting point lay within 195 to 196 °C.

In turn, `CC(C)c1ccc(C2(CC(=O)O)CNC(=O)C2)cc1` (centres undefined) gave a melting point of 175 to 178 °C.

For `N#CC1(Cc2nnn[nH]2)C2CCCC1CCC2` (centres undefined), the melting point was in the range of 189 to 191 °C.

For the compound `O=C(c1ccccc1)c1cnc2c(n1)CCCC2`, the melting point lay in the range of 61.5 to 63.5 °C.

As to `COc1cc(CC#N)c(CCNC(=O)C(F)(F)F)cc1OC`, the melting point was found to be 131 °C.

`CCOC(=O)/C=C/c1c(C)nn(Cc2ccc(OCc3nc(-c4ccccc4)oc3C)cc2)c1C` came in with a melting point of 98 to 99 °C.

`CN(C)N=C(c1ccccc1)c1cc(C(C)(C)C)c(O)c(C(C)(C)C)c1` returned a melting point of 111 to 124 °C.

The compound `CNc1cc(Oc2cccc(C(F)(F)F)c2)nc(C(=O)O)c1` yielded a melting point of 66 to 68 °C.

Regarding `C=CCc1cc2c(c(CC=C)c1O)CCC(=O)N2CCO`, the melting point lay within 106 to 108 °C.

For the compound `Cc1cc(Nc2ccc(Cl)cc2)nc(-n2cc3ccccc3n2)n1`, the melting point was 225 to 227 °C.

Take `CS(=O)(=O)c1ccc(C(CC2CCCC2)C(=O)O)cc1S(C)(=O)=O` (centres undefined): the melting point is 64 to 68 °C.

Regarding `CC1CCN(c2c(C#N)c3c(c4c2CCc2ccccc2-4)-c2ccccc2C3)CC1`, the melting point was in the range of 152 to 154 °C.

Consider `CCCC1=NN(c2ccc(C(=O)N(CC)CC)cc2)C(=O)C1=CNc1ccccc1CC`, for which the melting point turned out to be 123 °C.

As to `CCN(CC)C(=O)n1cnc(S(=O)(=O)CC2CCCCO2)n1` (centres undefined), the melting point is 122 °C.

Compound `O=C1CCN(Cc2ccccc2OC(F)(F)F)CC1C(c1ccc(F)cc1)c1ccc(F)cc1` (centres undefined) showed a melting point of 88 to 89 °C.

For `FC(F)(F)c1cccc(CCc2nnc(-c3ccc4nccn4c3)o2)c1`, the melting point lay in the range of 152 to 153 °C.

The compound `NC(=O)c1ccc(-c2ccc3nnn(Cc4cc5cccnc5cc4F)c3n2)cc1Cl` gave a melting point of 202 to 204 °C.

In turn, `COc1c(-c2cc3c(s2)CCC(O)C3)ccc2c(=O)c(C(=O)O)cn(C3CC3)c12` (centres undefined) registered a melting point of 232 to 233 °C.

`CCOC(=O)CN(CP(=S)(Oc1ccccc1)Oc1ccccc1)C(=O)C(F)(F)F`: the melting point is 50 to 52 °C.

Compound `CC(=C(c1ccccc1)c1ccccc1)P(C(C)(C)C)C(C)(C)C` had a melting point of 130 to 133 °C.

With `CN(C)Cc1ccccc1Sc1ccc([N+](=O)[O-])cc1[N+](=O)[O-]`, the melting point lay within 128 to 129 °C.

With `COc1cccc(C2CCCN2CCN2C(=O)c3ccccc3C2=O)c1` (centres undefined), the melting point lay in the range of 110 to 111 °C.

`O=S(=O)(Cl)c1ccc2c(c1)oc1ccccc12`: the melting point was 142 to 144 °C.

With `Cc1ccc(-c2ccc(CBr)cc2)cc1`, the melting point was 100 to 102 °C.

With `Cc1c(C=CCCCCCCCCCC(=O)O)cccc1C(=O)c1ccc(Cl)cc1`, the melting point came out at 49 °C.

Consider `CCC1(NC(=O)c2cc(OC)ccn2)CCCCn2c1nc(-c1ccncn1)cc2=O` (racemic), for which the melting point was 200 to 202 °C.

Consider `CCOC(=O)C1=C(NC(C)=O)Oc2cc(O)ccc2C1c1cccnc1` (centres undefined), for which the melting point was in the range of 216 to 218 °C.

In the case of `Cc1cccc(-c2[nH]c(C(C)C)nc2-c2ccc(F)c(-c3ccc(S(C)=O)nc3)c2)n1` (centres undefined), the melting point was 100 to 102 °C.

`Cc1ccnc([N+](=O)[O-])c1O` gave a melting point of 87 to 88 °C.

With `COc1cc(C(=O)O)ccc1Cc1c(Cl)n(C)c2ccc(CC(C)NC(=O)N(C)C)cc12` (centres undefined), the melting point lay in the range of 171 to 173 °C.

In the case of `CN(CCOc1ccc(CC(Sc2ccc(Cl)cc2)C(=O)O)cc1)c1nc2ccccc2o1` (centres undefined), the melting point is 156 to 157 °C.

As for `O=C(O)CCCNC(=O)c1cc(Cl)ccc1O`, the melting point was 136 to 140 °C.

`CCOC(=O)C=C(C)Nc1c[nH]nc1-c1ccc(Cl)cc1` gave a melting point of 145 to 146 °C.
